Some test systems named below: MDA-MB-231 breast; SK-OV-3 ovarian; DU-145 prostate; MDA-MB-435; OVCAR-5 ovarian; HL-60(TB) leukemia; NCI-H23 lung; OVCAR-3 ovarian; PC-3 prostate; CAKI-1 renal; HCT-15 colon; HT29 colon; SR leukemia; SK-MEL-2 melanoma; MALME-3M melanoma; ACHN renal; HCC-2998 colon; NCI-H522 lung.
What all share (assay): inhibition of tumour cell growth, NCI panel, 48 h

Among the data in PubChem BioAssay (NCI) are TGI values, retold here.

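Protocol summary: plate cells (96-well), add compound at 5 concentrations, incubate 48 h, interpolate endpoints linearly. TGI denotes the concentration required for complete inhibition of growth.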

For the molecule `CCOC(=O)c1csc(NC(=O)CCN2CCOCC2)n1`, the TGI in the assay with MDA-MB-231 breast was above 100 µM; with SK-OV-3 ovarian, above 100 µM; in the assay with DU-145 prostate it was above 100 µM; with MDA-MB-435, above 100 µM; in the assay on OVCAR-5 ovarian, above 100 µM; in the assay on HL-60(TB) leukemia it was 94.4 µM. Also, the TGI in the assay with NCI-H23 lung, with OVCAR-3 ovarian, in the assay with PC-3 prostate, in the assay with CAKI-1 renal, in the assay with HCT-15 colon and with HT29 colon was above 100 µM in each case. Besides, the TGI with SR leukemia, in the assay with SK-MEL-2 melanoma, in the assay on MALME-3M melanoma, in the assay on ACHN renal and in the assay on HCC-2998 colon was above 100 µM throughout.
As for `Cc1cc(C)c(S(=O)(=O)N(CCCCCCN)OCCCON(CCCCCCN)S(=O)(=O)c2c(C)cc(C)cc2C)c(C)c1`, the TGI with MDA-MB-231 breast is 3.21 µM; in the assay on SK-OV-3 ovarian, 3.37 µM; with DU-145 prostate, 2.76 µM; with MDA-MB-435, 3.99 µM; with OVCAR-5 ovarian, 2.72 µM; with HL-60(TB) leukemia, above 100 µM. The TGI with NCI-H23 lung was found to be 3.11 µM; with OVCAR-3 ovarian it was 3.34 µM; with PC-3 prostate, 3.15 µM; with CAKI-1 renal, 3.7 µM; in the assay on HCT-15 colon, 3.6 µM; in the assay on HT29 colon, 3.05 µM. For the same molecule, the TGI in the assay with NCI-H522 lung came to 3.27 µM; with SK-MEL-2 melanoma it was 3.48 µM; in the assay on MALME-3M melanoma it was 3.66 µM; with ACHN renal, 13.1 µM.
As for `N=C(N)SCCSC(=N)N`, the TGI in the assay on MDA-MB-231 breast, in the assay with SK-OV-3 ovarian, with DU-145 prostate, in the assay on MDA-MB-435, in the assay with OVCAR-5 ovarian and in the assay on NCI-H23 lung was above 100 µM each time. Further, the TGI with OVCAR-3 ovarian, with PC-3 prostate, in the assay on CAKI-1 renal, with HCT-15 colon, with HT29 colon and in the assay with NCI-H522 lung was above 100 µM in each case. Moreover, the TGI in the assay on MALME-3M melanoma, with ACHN renal and in the assay with HCC-2998 colon was above 100 µM each time.
With `Cc1cc2c(=O)c3ccc(Cl)cc3[nH]c2c(C(=O)O)c1C`, the TGI in the assay on SK-OV-3 ovarian, in the assay on OVCAR-5 ovarian, with NCI-H23 lung, in the assay on OVCAR-3 ovarian, in the assay with CAKI-1 renal and in the assay on HCT-15 colon was above 100 µM throughout. The TGI with HT29 colon, in the assay on NCI-H522 lung, in the assay on SK-MEL-2 melanoma, with MALME-3M melanoma, in the assay on ACHN renal and in the assay with HCC-2998 colon was above 100 µM each time.
For the molecule `COc1ccc2c(c1)C(=O)/C(=C/c1ccccc1)C2`, the TGI in the assay on SK-OV-3 ovarian, with DU-145 prostate, in the assay on MDA-MB-435, in the assay with OVCAR-5 ovarian, in the assay with NCI-H23 lung and in the assay on OVCAR-3 ovarian was above 100 µM each time. The TGI in the assay with PC-3 prostate was above 100 µM; in the assay with CAKI-1 renal, 60.1 µM; in the assay with HCT-15 colon it was above 100 µM; with HT29 colon, above 100 µM; with NCI-H522 lung, above 100 µM; in the assay with SR leukemia it was above 100 µM. The TGI in the assay on SK-MEL-2 melanoma and in the assay with MALME-3M melanoma was above 100 µM each time.
Regarding `O=c1n(Cc2ccccc2)c2ccccc2n1CC1CS1` (stereo not drawn), the TGI in the assay on SK-OV-3 ovarian, in the assay with OVCAR-5 ovarian, in the assay with HL-60(TB) leukemia, in the assay with OVCAR-3 ovarian, in the assay with CAKI-1 renal and with HCT-15 colon was above 100 µM throughout. In addition, the TGI in the assay with NCI-H522 lung, in the assay on SR leukemia, in the assay on SK-MEL-2 melanoma, in the assay with MALME-3M melanoma, in the assay on ACHN renal and in the assay on HCC-2998 colon was above 100 µM each time.
On to `O=C1CNC(=O)N1`, for which the TGI with SK-OV-3 ovarian, with OVCAR-5 ovarian, in the assay on HL-60(TB) leukemia, with NCI-H23 lung, in the assay on OVCAR-3 ovarian and in the assay with CAKI-1 renal was above 1120 µM in each case. The TGI with HCT-15 colon, with HT29 colon, with NCI-H522 lung, in the assay on SK-MEL-2 melanoma, with MALME-3M melanoma and in the assay on HCC-2998 colon was above 1120 µM throughout.
For the molecule `Nc1ccc(N=Nc2ccc(-c3ccc(N=Nc4c(S(=O)(=O)O)cc5cc(S(=O)(=O)O)c(N=Nc6ccc([N+](=O)[O-])cc6)c(N)c5c4O)cc3)cc2)c2cc(S(=O)(=O)O)ccc12`, the TGI in the assay on SK-OV-3 ovarian, in the assay on OVCAR-5 ovarian, in the assay with HL-60(TB) leukemia, in the assay on NCI-H23 lung, in the assay with OVCAR-3 ovarian and with CAKI-1 renal was above 100 µM each time. Moreover, the TGI in the assay on HCT-15 colon, with HT29 colon, in the assay on NCI-H522 lung, in the assay with SR leukemia, in the assay with SK-MEL-2 melanoma and with MALME-3M melanoma was above 100 µM each time. Also, the TGI in the assay on ACHN renal and in the assay with HCC-2998 colon was above 100 µM in each case.
As to `O=C(O)CSc1nc2ccccc2[nH]1`, the TGI in the assay with MDA-MB-231 breast, with DU-145 prostate, in the assay with MDA-MB-435, with OVCAR-5 ovarian, in the assay with NCI-H23 lung and in the assay on OVCAR-3 ovarian was above 100 µM in each case. For the same molecule, the TGI with PC-3 prostate, in the assay with CAKI-1 renal, in the assay with HCT-15 colon, in the assay with HT29 colon, with NCI-H522 lung and in the assay with SR leukemia was above 100 µM throughout. Besides, the TGI in the assay with SK-MEL-2 melanoma, in the assay with MALME-3M melanoma, in the assay on ACHN renal and in the assay on HCC-2998 colon was above 100 µM each time.
`COc1ccc(-c2nnc3c4ccccc4sn23)cc1`: the TGI was above 100 µM with OVCAR-5 ovarian; 45.4 µM in the assay on HL-60(TB) leukemia; above 100 µM in the assay with NCI-H23 lung; 61.5 µM in the assay with OVCAR-3 ovarian; above 100 µM in the assay on HCT-15 colon; above 100 µM in the assay with HT29 colon. In addition, the TGI with SR leukemia, in the assay with SK-MEL-2 melanoma, in the assay on ACHN renal and in the assay with HCC-2998 colon was above 100 µM in each case.
For the molecule `CCOC(=O)C(=NN(C)c1ncccc1N)C(=O)OCC`, the TGI in the assay with MDA-MB-231 breast is 83.3 µM; in the assay with SK-OV-3 ovarian, above 100 µM; with DU-145 prostate, above 100 µM; in the assay on MDA-MB-435, 44.5 µM; with HL-60(TB) leukemia it was 84.2 µM; with NCI-H23 lung, above 100 µM. The TGI in the assay with OVCAR-3 ovarian, in the assay with PC-3 prostate, with CAKI-1 renal, with HCT-15 colon, in the assay on HT29 colon and in the assay with SR leukemia was above 100 µM throughout. Moreover, the TGI is above 100 µM in the assay with SK-MEL-2 melanoma and 59.7 µM in the assay with MALME-3M melanoma.
Consider `CC1(C)CCCC2(C)[C@@H]1CC[C@]13C[C@](C)(CC[C@@H]21)[C@@H]3CO` (stereo partly drawn), for which the TGI in the assay on SK-OV-3 ovarian, in the assay on OVCAR-5 ovarian, with HL-60(TB) leukemia, in the assay on NCI-H23 lung, in the assay with OVCAR-3 ovarian and in the assay with CAKI-1 renal was above 100 µM each time. In addition, the TGI in the assay with HCT-15 colon, in the assay on HT29 colon, in the assay on NCI-H522 lung, in the assay with MALME-3M melanoma, in the assay with ACHN renal and in the assay with HCC-2998 colon was above 100 µM each time.
In the case of `COc1cc2c(OC)c3cc(C)oc(=O)c3c(O)c2c(O)c1-c1c(OC)cc2c(OC)c3cc(C)oc(=O)c3c(O)c2c1O`, the TGI with MDA-MB-231 breast was 36.6 µM; with SK-OV-3 ovarian, above 100 µM; in the assay with DU-145 prostate, above 100 µM; with MDA-MB-435, 33.9 µM; in the assay on OVCAR-5 ovarian it was 40.9 µM; with HL-60(TB) leukemia it was 33.9 µM. The TGI in the assay on NCI-H23 lung amounted to 32.5 µM; in the assay on OVCAR-3 ovarian, 33.9 µM; with PC-3 prostate, 33 µM; with CAKI-1 renal, 47 µM; in the assay with HCT-15 colon, 39.4 µM; with HT29 colon, 55.3 µM. For the same molecule, the TGI is 40 µM in the assay with NCI-H522 lung; 35.8 µM in the assay on SK-MEL-2 melanoma; 37.2 µM with MALME-3M melanoma; 33.3 µM with ACHN renal; 33.5 µM in the assay on HCC-2998 colon.
Consider `CC12CCC3C(CCC4(O)C=CCCC34C=O)C1(O)CC(O)C2c1ccc(=O)oc1` (stereo not drawn), for which the TGI in the assay on SK-OV-3 ovarian is 0.248 µM; with OVCAR-5 ovarian, 0.638 µM; in the assay on NCI-H23 lung, 0.12 µM; in the assay with OVCAR-3 ovarian it was 0.0939 µM; with CAKI-1 renal, 0.0894 µM; in the assay on HCT-15 colon, 0.178 µM. For the same molecule, the TGI came out at 1.71 µM in the assay on HT29 colon; 0.0622 µM in the assay on NCI-H522 lung; 0.295 µM in the assay with SK-MEL-2 melanoma; 0.0877 µM in the assay with MALME-3M melanoma; 0.252 µM in the assay with HCC-2998 colon.
For the molecule `COc1cc(CN(C)N2C(=O)c3cccc4cc([N+](=O)[O-])cc(c34)C2=O)cc(OC)c1OC`, the TGI with MDA-MB-231 breast, in the assay on SK-OV-3 ovarian, in the assay with DU-145 prostate, in the assay on MDA-MB-435, in the assay on OVCAR-5 ovarian and in the assay on HL-60(TB) leukemia was above 100 µM in each case. In addition, the TGI with NCI-H23 lung, in the assay on OVCAR-3 ovarian, with PC-3 prostate, in the assay with CAKI-1 renal, with HCT-15 colon and in the assay on HT29 colon was above 100 µM throughout. The TGI in the assay with NCI-H522 lung, in the assay on SR leukemia, in the assay on SK-MEL-2 melanoma and in the assay on MALME-3M melanoma was above 100 µM throughout.
